Reference: PubChem BioAssay AID292 (DTP/NCI, 2004)
Where “and” joins values, the source holds several entries; their conditions need not be identical. Identical values can stand only once. Toxic doses and inconclusive results are not listed.

Test system: B6C3F1 mice, ip Sarcoma M5076, median survival T/C
Assay: NCI In Vivo Anticancer Drug Screen. Data for tumor model Sarcoma M5076 (intraperitoneal) in B6C3F1 mice
Details: endpoint: median survival time, schedule: Q04DX004 (ip), higher = longer survival
Summary of the method: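 Antitumour effect is judged in tumour-bearing mice by comparing survival after compound dosing against vehicle-only animals, reported as T/C.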

[1] = dose: 50.0 mg/kg/injection, vehicle: Klucel (hydroxypropylcellulose) (HPC)
[2] = dose: 100.0 mg/kg/injection, vehicle: Klucel (hydroxypropylcellulose) (HPC)
[3] = dose: 200.0 mg/kg/injection, vehicle: Klucel (hydroxypropylcellulose) (HPC)
[4] = dose: 400.0 mg/kg/injection, vehicle: Klucel (hydroxypropylcellulose) (HPC)
[5] = dose: 800.0 mg/kg/injection, vehicle: Klucel (hydroxypropylcellulose) (HPC)
[6] = dose: 50.0 mg/kg/injection, vehicle: saline with Tween-80
[7] = dose: 200.0 mg/kg/injection, vehicle: saline with Tween-80
[8] = dose: 1.5 mg/kg/injection, vehicle: saline
[9] = dose: 3.0 mg/kg/injection, vehicle: saline
[10] = dose: 100.0 mg/kg/injection, vehicle: saline with Tween-80
[11] = dose: 400.0 mg/kg/injection, vehicle: saline with Tween-80
[12] = dose: 800.0 mg/kg/injection, vehicle: saline with Tween-80
[13] = dose: 12.5 mg/kg/injection, vehicle: saline with Tween-80
[14] = dose: 25.0 mg/kg/injection, vehicle: saline with Tween-80

CC1C=NNC1=O (stereo not drawn)
T/C [1]: 103 % of control
T/C [2]: 101 % of control
T/C [3]: 121 % of control
T/C [4]: 102 % of control
T/C [5]: 112 % of control

CN(C)CN1C(=O)S/C(=C2\C(=O)N(CN(C)C)c3ccccc32)C1=O
T/C [1]: 102 % of control
T/C [2]: 90 % of control
T/C [3]: 90 % of control

CC(C)(O)/C=C/C(=O)[C@](C)(O)[C@H]1[C@H](O)C[C@@]2(C)[C@@H]3CC=C4[C@@H](C=C(O)C(=O)C4(C)C)[C@]3(C)C(=O)C[C@]12C
T/C (dose: 0.5 mg/kg/injection, vehicle: water): 111 % of control
T/C (dose: 1.0 mg/kg/injection, vehicle: water): 117 % of control
T/C (dose: 1.67 mg/kg/injection, vehicle: water): 113 % of control

CSC1SCC2C(=O)N(C)C(C(C)C)C(=O)OCC(NC(=O)c3cnc4ccccc4n3)C(=O)NC(C)C(=O)N(C)C1C(=O)N(C)C(C(C)C)C(=O)OCC(NC(=O)c1cnc3ccccc3n1)C(=O)NC(C)C(=O)N2C (stereo not drawn)
T/C (dose: 12.5 micrograms/kg/injection, vehicle: saline with Tween-80): 100 % of control
T/C (dose: 25.0 micrograms/kg/injection, vehicle: saline with Tween-80): 104 % of control
T/C (dose: 50.0 micrograms/kg/injection, vehicle: saline with Tween-80): 110 % of control and 111 % of control
T/C (dose: 100.0 micrograms/kg/injection, vehicle: saline with Tween-80): 114 % of control
T/C (dose: 200.0 micrograms/kg/injection, vehicle: saline with Tween-80): 123 % of control

COc1ccc(C(C)c2cc3c(cc2OC)OCO3)cc1 (stereo not drawn)
T/C [6]: 115 % of control
T/C [7]: 110 % of control

C[n+]1c2cc(N)ccc2cc2ccc(N)cc21
T/C [8]: 101 % of control
T/C [9]: 94 % of control
T/C (dose: 6.0 mg/kg/injection, vehicle: saline): 106 % of control and 118 % of control and 120 % of control
T/C (dose: 12.0 mg/kg/injection, vehicle: saline): 116 % of control and 123 % of control
T/C (dose: 24.0 mg/kg/injection, vehicle: saline): 112 % of control

C[n+]1c(-c2ccc(/C=N/NC(=O)c3ccc(C(=O)N/N=C/c4ccc(-c5cn6ccccc6[n+]5C)cc4)cc3)cc2)cn2ccccc21
T/C [6]: 104 % of control
T/C [10]: 98 % of control
T/C [7]: 108 % of control
T/C [11]: 115 % of control
T/C [12]: 112 % of control

O=C(O)CC(Sc1ccc(Cl)cc1)C(=O)Nc1ccccc1 (stereo not drawn)
T/C (dose: 31.25 mg/kg/injection, vehicle: saline with Tween-80): 99 % of control
T/C (dose: 62.5 mg/kg/injection, vehicle: saline with Tween-80): 102 % of control
T/C (dose: 125.0 mg/kg/injection, vehicle: saline with Tween-80): 90 % of control
T/C (dose: 500.0 mg/kg/injection, vehicle: saline with Tween-80): 94 % of control

O=c1[nH]c(=O)n(C2CC(O)C(CO)O2)cc1I (stereo not drawn)
T/C [10]: 103 % of control and 117 % of control
T/C [7]: 108 % of control and 118 % of control
T/C [11]: 122 % of control
T/C [12]: 158 % of control
T/C (dose: 1600.0 mg/kg/injection, vehicle: saline with Tween-80): 243 % of control

Clc1ccc(-c2noc(CN3CCCCC3)n2)cc1
T/C [6]: 92 % of control
T/C [10]: 96 % of control
T/C [7]: 97 % of control

[Cl][Hg][Cl]
T/C (dose: 0.38 mg/kg/injection, vehicle: saline): 93 % of control
T/C (dose: 0.39 mg/kg/injection, vehicle: saline): 96 % of control
T/C (dose: 0.75 mg/kg/injection, vehicle: saline): 96 % of control
T/C (dose: 0.78 mg/kg/injection, vehicle: saline): 86 % of control
T/C [8]: 96 % of control
T/C (dose: 1.56 mg/kg/injection, vehicle: saline): 87 % of control
T/C [9]: 93 % of control
T/C (dose: 3.12 mg/kg/injection, vehicle: saline): 87 % of control

COC(=O)c1c(C(=O)OC)c2c(C)nn3ccc1n23
T/C [13]: 96 % of control
T/C [14]: 97 % of control
T/C [6]: 96 % of control
T/C [10]: 104 % of control
T/C [7]: 93 % of control

COC(=O)C1(F)C(=O)NC(=O)NC1OC (stereo not drawn)
T/C [1]: 100 % of control and 102 % of control
T/C [2]: 106 % of control and 116 % of control
T/C [3]: 104 % of control and 113 % of control
T/C [4]: 109 % of control and 113 % of control
T/C [5]: 102 % of control and 116 % of control

CC1CC12OC(=O)N(c1cc(Cl)cc(Cl)c1)C2=O (stereo not drawn)
T/C (dose: 37.5 mg/kg/injection, vehicle: saline + Tween-80 + alcohol): 101 % of control
T/C (dose: 75.0 mg/kg/injection, vehicle: saline + Tween-80 + alcohol): 99 % of control
T/C (dose: 150.0 mg/kg/injection, vehicle: saline + Tween-80 + alcohol): 99 % of control
T/C (dose: 300.0 mg/kg/injection, vehicle: saline + Tween-80 + alcohol): 95 % of control
T/C (dose: 600.0 mg/kg/injection, vehicle: saline + Tween-80 + alcohol): 91 % of control

N=C(N)c1nn(C2OC(CO)C(O)C2O)c2nc[nH]c(=O)c12 (stereo not drawn)
T/C (dose: 6.25 mg/kg/injection, vehicle: Klucel + Tween-80): 123 % of control
T/C (dose: 12.5 mg/kg/injection, vehicle: Klucel + Tween-80): 109 % of control
T/C (dose: 18.0 mg/kg/injection, vehicle: other): 106 % of control
T/C (dose: 22.0 mg/kg/injection, vehicle: Klucel + Tween-80): 112 % of control
T/C (dose: 30.0 mg/kg/injection, vehicle: other): 107 % of control
T/C (dose: 36.0 mg/kg/injection, vehicle: Klucel + Tween-80): 120 % of control
T/C (dose: 50.0 mg/kg/injection, vehicle: other): 105 % of control
T/C (dose: 60.0 mg/kg/injection, vehicle: Klucel + Tween-80): 117 % of control
T/C (dose: 83.33 mg/kg/injection, vehicle: other): 105 % of control
T/C (dose: 101.0 mg/kg/injection, vehicle: Klucel + Tween-80): 117 % of control

NCCn1c(-c2ccccc2)nc2ccccc2c1=O
T/C (dose: 25.0 mg/kg/injection, vehicle: Klucel (hydroxypropylcellulose) (HPC)): 106 % of control
T/C [1]: 102 % of control
T/C [2]: 109 % of control
T/C [3]: 94 % of control

COc1ccc(C[C@H](N)C(=O)NC2C(CO)OC(n3cnc4c(N(C)C)ncnc43)C2O)cc1 (stereo partly drawn)
T/C (dose: 50.0 mg/kg/injection, vehicle: saline): 89 % of control
T/C (dose: 100.0 mg/kg/injection, vehicle: saline): 117 % of control
T/C (dose: 200.0 mg/kg/injection, vehicle: saline): 102 % of control
T/C (dose: 400.0 mg/kg/injection, vehicle: saline): 108 % of control

Cc1cc2cc3cc(C)c(N)cc3nc2cc1N
T/C [14]: 110 % of control
T/C [6]: 117 % of control
T/C [10]: 113 % of control

N#CC1C(=O)NC(=S)NC1c1ccccc1 (stereo not drawn)
T/C [1]: 97 % of control
T/C [2]: 101 % of control
T/C [3]: 97 % of control
T/C [4]: 100 % of control

c1ccc2c(c1)[nH]c1c2c(N2CCOCC2)nn2cnnc12
T/C [13]: 92 % of control
T/C [14]: 88 % of control and 96 % of control
T/C [6]: 100 % of control
T/C [10]: 95 % of control
T/C [7]: 87 % of control
